Results: ChEMBL document CHEMBL6182898, “Design, synthesis and bioevaluation of novel hydrazide derivatives as enhancers of immunotherapy and DNA-damage response in antitumor therapy” (Eur J Med Chem, 2025)

test system: SK-OV-3; assay: cells; type: functional; settings: Homo sapiens, time 72 hrs

Row | Structure (SMILES) | inhibition at 10 µM
1 | CCCNNC(=O)CCCCCNC(=O)c1cnc(-c2cccc3ccccc23)s1 | < 50%
2 | CCCNNC(=O)CCCCCCNC(=O)c1cnc(-c2ccc(OC(F)(F)F)c(OC(F)(F)F)c2)s1 | 62.7%
3 | CCCNNC(=O)c1ccc(NC(=O)c2cnc(-c3ccc(F)cc3)s2)cc1 | < 50%
4 | CCCNNC(=O)CCCCCCNC(=O)c1cnc(-c2c[nH]c3ccccc23)s1 | 53%
5 | CCCNNC(=O)CCCCCNC(=O)c1cnc(-c2ccc(Cl)cc2Cl)s1 | < 50%
6 | CCCNNC(=O)CCCCCCNC(=O)c1cnc(-c2ccc3c(c2)OCO3)s1 | 86.8%
7 | CCCNNC(=O)CCCCCNC(=O)c1cnc(-c2ccc(C(F)(F)F)cc2)s1 | 70.9%
8 | Nc1ccccc1NC(=O)c1ccc(CNC(=O)OCc2cccnc2)cc1 [ENTINOSTAT] | 50.2%
9 | CCCNNC(=O)CCCCCNC(=O)c1cnc(-c2c[nH]c3ccccc23)s1 | < 50%
10 | CCCNNC(=O)CCCCCNC(=O)c1cnc(-c2ccc(Cl)cc2)s1 | < 50%

test system: 4T1; assay: cells; type: functional; settings: Mus musculus, time 72 hrs

Row | Structure (SMILES) | inhibition at 10 µM
11 | CCCNNC(=O)CCCCCNC(=O)c1cnc(-c2cccc3ccccc23)s1 | < 20%
12 | CCCNNC(=O)CCCCCCNC(=O)c1cnc(-c2ccc(OC(F)(F)F)c(OC(F)(F)F)c2)s1 | 20.5%
13 | CCCNNC(=O)c1ccc(NC(=O)c2cnc(-c3ccc(F)cc3)s2)cc1 | < 20%
14 | CCCNNC(=O)CCCCCCNC(=O)c1cnc(-c2c[nH]c3ccccc23)s1 | 21.8%
15 | CCCNNC(=O)CCCCCNC(=O)c1cnc(-c2ccc(Cl)cc2Cl)s1 | < 20%
16 | CCCNNC(=O)CCCCCCNC(=O)c1cnc(-c2ccc3c(c2)OCO3)s1 | 22.1%
17 | CCCNNC(=O)CCCCCNC(=O)c1cnc(-c2ccc(C(F)(F)F)cc2)s1 | 38.9%
18 | Nc1ccccc1NC(=O)c1ccc(CNC(=O)OCc2cccnc2)cc1 [ENTINOSTAT] | 43.4%
19 | CCCNNC(=O)CCCCCNC(=O)c1cnc(-c2c[nH]c3ccccc23)s1 | < 20%
20 | CCCNNC(=O)CCCCCNC(=O)c1cnc(-c2ccc(Cl)cc2)s1 | 21.5%

test system: HCT-116; assay: cells; type: functional; settings: Homo sapiens, time 72 hrs

Row | Structure (SMILES) | inhibition at 10 µM
21 | CCCNNC(=O)CCCCCNC(=O)c1cnc(-c2cccc3ccccc23)s1 | 60.6%
22 | CCCNNC(=O)CCCCCCNC(=O)c1cnc(-c2ccc(OC(F)(F)F)c(OC(F)(F)F)c2)s1 | 88.8%
23 | CCCNNC(=O)c1ccc(NC(=O)c2cnc(-c3ccc(F)cc3)s2)cc1 | < 50%
24 | CCCNNC(=O)CCCCCCNC(=O)c1cnc(-c2c[nH]c3ccccc23)s1 | 72.7%
25 | CCCNNC(=O)CCCCCNC(=O)c1cnc(-c2ccc(Cl)cc2Cl)s1 | 54%
26 | CCCNNC(=O)CCCCCCNC(=O)c1cnc(-c2ccc3c(c2)OCO3)s1 | 68.4%
27 | CCCNNC(=O)CCCCCNC(=O)c1cnc(-c2ccc(C(F)(F)F)cc2)s1 | < 50%
28 | Nc1ccccc1NC(=O)c1ccc(CNC(=O)OCc2cccnc2)cc1 [ENTINOSTAT] | 94.6%
29 | CCCNNC(=O)CCCCCNC(=O)c1cnc(-c2c[nH]c3ccccc23)s1 | 36.5%
30 | CCCNNC(=O)CCCCCNC(=O)c1cnc(-c2ccc(Cl)cc2)s1 | 58.2%

test system: B16-F10; assay: cells; type: functional; settings: Mus musculus, time 72 hrs

Row | Structure (SMILES) | inhibition at 10 µM
31 | CCCNNC(=O)CCCCCNC(=O)c1cnc(-c2cccc3ccccc23)s1 | < 50%
32 | CCCNNC(=O)CCCCCCNC(=O)c1cnc(-c2ccc(OC(F)(F)F)c(OC(F)(F)F)c2)s1 | 54.5%
33 | CCCNNC(=O)c1ccc(NC(=O)c2cnc(-c3ccc(F)cc3)s2)cc1 | < 50%
34 | CCCNNC(=O)CCCCCCNC(=O)c1cnc(-c2c[nH]c3ccccc23)s1 | < 50%
35 | CCCNNC(=O)CCCCCNC(=O)c1cnc(-c2ccc(Cl)cc2Cl)s1 | < 50%
36 | CCCNNC(=O)CCCCCCNC(=O)c1cnc(-c2ccc3c(c2)OCO3)s1 | 59.6%
37 | CCCNNC(=O)CCCCCNC(=O)c1cnc(-c2ccc(C(F)(F)F)cc2)s1 | 59.6%
38 | Nc1ccccc1NC(=O)c1ccc(CNC(=O)OCc2cccnc2)cc1 [ENTINOSTAT] | 46.2%
39 | CCCNNC(=O)CCCCCNC(=O)c1cnc(-c2c[nH]c3ccccc23)s1 | < 50%
40 | CCCNNC(=O)CCCCCNC(=O)c1cnc(-c2ccc(Cl)cc2)s1 | < 50%

test system: K562; assay: cells; type: functional; settings: Homo sapiens, time 72 hrs

Row | Structure (SMILES) | inhibition at 10 µM
41 | CCCNNC(=O)CCCCCNC(=O)c1cnc(-c2cccc3ccccc23)s1 | 67.5%
42 | CCCNNC(=O)CCCCCCNC(=O)c1cnc(-c2ccc(OC(F)(F)F)c(OC(F)(F)F)c2)s1 | 69.5%
43 | CCCNNC(=O)c1ccc(NC(=O)c2cnc(-c3ccc(F)cc3)s2)cc1 | 69.6%
44 | CCCNNC(=O)CCCCCCNC(=O)c1cnc(-c2c[nH]c3ccccc23)s1 | 67.7%
45 | CCCNNC(=O)CCCCCNC(=O)c1cnc(-c2ccc(Cl)cc2Cl)s1 | < 50%
46 | CCCNNC(=O)CCCCCCNC(=O)c1cnc(-c2ccc3c(c2)OCO3)s1 | 68.9%
47 | CCCNNC(=O)CCCCCNC(=O)c1cnc(-c2ccc(C(F)(F)F)cc2)s1 | < 50%
48 | Nc1ccccc1NC(=O)c1ccc(CNC(=O)OCc2cccnc2)cc1 [ENTINOSTAT] | 70.5%
49 | CCCNNC(=O)CCCCCNC(=O)c1cnc(-c2c[nH]c3ccccc23)s1 | < 50%
50 | CCCNNC(=O)CCCCCNC(=O)c1cnc(-c2ccc(Cl)cc2)s1 | < 50%

test system: 4T1; assay: Antiproliferative activity against mouse 4T1 cells incubated for 72 hrs by MTT assay; type: functional, cell-based; settings: 4T1, 72 h

Row | Structure (SMILES) | IC50
51 | CCCNNC(=O)CCCCCCNC(=O)c1cnc(-c2ccc3[nH]ccc3c2)s1 | 9.82 µM
52 | Nc1ccccc1NC(=O)c1ccc(CNC(=O)OCc2cccnc2)cc1 [ENTINOSTAT] | 8.82 µM

test system: SK-OV-3; assay: Antiproliferative activity against human SK-OV-3 cells incubated for 72 hrs by MTT assay; type: functional, cell-based; settings: SK-OV-3, 72 h

Row | Structure (SMILES) | IC50
53 | CCCNNC(=O)CCCCCCNC(=O)c1cnc(-c2ccc3[nH]ccc3c2)s1 | 5.06 µM
54 | Nc1ccccc1NC(=O)c1ccc(CNC(=O)OCc2cccnc2)cc1 [ENTINOSTAT] | 8.33 µM

test system: HCT-116; assay: Antiproliferative activity against human HCT-116 cells incubated for 72 hrs by MTT assay; type: functional, cell-based; settings: HCT-116, 72 h

Row | Structure (SMILES) | IC50
55 | CCCNNC(=O)CCCCCCNC(=O)c1cnc(-c2ccc3[nH]ccc3c2)s1 | 8.15 µM
56 | Nc1ccccc1NC(=O)c1ccc(CNC(=O)OCc2cccnc2)cc1 [ENTINOSTAT] | 0.91 µM

test system: B16-F10; assay: Antiproliferative activity against mouse B16-F10 cells incubated for 72 hrs by MTT assay; type: functional, cell-based; settings: B16-F10, 72 h

Row | Structure (SMILES) | IC50
57 | CCCNNC(=O)CCCCCCNC(=O)c1cnc(-c2ccc3[nH]ccc3c2)s1 | 9.36 µM
58 | Nc1ccccc1NC(=O)c1ccc(CNC(=O)OCc2cccnc2)cc1 [ENTINOSTAT] | 11 µM

test system: K562; assay: Antiproliferative activity against human K562 cells incubated for 72 hrs by CCK8 assay; type: functional, cell-based; settings: K562, 72 h

Row | Structure (SMILES) | IC50
59 | CCCNNC(=O)CCCCCCNC(=O)c1cnc(-c2ccc3[nH]ccc3c2)s1 | 1.46 µM
60 | Nc1ccccc1NC(=O)c1ccc(CNC(=O)OCc2cccnc2)cc1 [ENTINOSTAT] | 0.79 µM

test system: not listed separately; assay: Antiproliferative activity against human HK-2 cells incubated for 72 hrs by MTT assay; settings: not given

Row | Structure (SMILES) | IC50 at 72 h
61 | CCCNNC(=O)CCCCCCNC(=O)c1cnc(-c2ccc3[nH]ccc3c2)s1 | 10.1 µM
62 | Nc1ccccc1NC(=O)c1ccc(CNC(=O)OCc2cccnc2)cc1 [ENTINOSTAT] | 13.5 µM

target: Histone deacetylase 1 (Homo sapiens, UniProt Q13547); assay: Inhibition of HDAC1 (unknown origin); settings: not given
Sequence (Q13547 whole entry): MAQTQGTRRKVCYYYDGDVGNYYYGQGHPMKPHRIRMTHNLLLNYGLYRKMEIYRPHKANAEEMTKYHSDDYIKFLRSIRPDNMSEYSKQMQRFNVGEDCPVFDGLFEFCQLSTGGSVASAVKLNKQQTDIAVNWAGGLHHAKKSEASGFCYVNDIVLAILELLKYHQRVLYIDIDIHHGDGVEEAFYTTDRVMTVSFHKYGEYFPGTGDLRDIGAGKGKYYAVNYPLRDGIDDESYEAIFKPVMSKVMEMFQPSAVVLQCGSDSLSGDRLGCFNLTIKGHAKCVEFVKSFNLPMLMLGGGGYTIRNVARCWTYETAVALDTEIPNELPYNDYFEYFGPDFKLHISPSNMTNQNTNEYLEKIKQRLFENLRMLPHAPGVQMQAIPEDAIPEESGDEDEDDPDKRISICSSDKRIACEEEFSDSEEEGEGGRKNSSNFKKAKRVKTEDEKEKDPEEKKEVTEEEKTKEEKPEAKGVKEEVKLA

Row | Structure (SMILES) | IC50
63 | CCCNNC(=O)CCCCCCNC(=O)c1cnc(-c2ccc3[nH]ccc3c2)s1 | 1.57 µM

target: Histone deacetylase 3 (Homo sapiens, UniProt O15379); assay: Inhibition of HDAC3 (unknown origin); settings: not given
Sequence (O15379 whole entry): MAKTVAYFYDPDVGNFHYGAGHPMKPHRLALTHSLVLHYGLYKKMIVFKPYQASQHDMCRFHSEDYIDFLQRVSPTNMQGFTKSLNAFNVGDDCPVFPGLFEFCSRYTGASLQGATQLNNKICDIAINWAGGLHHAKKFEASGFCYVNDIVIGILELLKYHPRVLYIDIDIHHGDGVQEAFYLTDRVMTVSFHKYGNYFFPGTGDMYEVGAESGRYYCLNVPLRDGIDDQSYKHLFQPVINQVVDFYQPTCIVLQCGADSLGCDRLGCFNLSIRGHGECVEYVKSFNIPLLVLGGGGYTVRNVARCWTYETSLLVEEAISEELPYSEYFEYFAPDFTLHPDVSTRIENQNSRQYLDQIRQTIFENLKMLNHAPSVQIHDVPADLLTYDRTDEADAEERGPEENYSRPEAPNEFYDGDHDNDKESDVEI

Row | Structure (SMILES) | IC50
64 | CCCNNC(=O)CCCCCCNC(=O)c1cnc(-c2ccc3[nH]ccc3c2)s1 | 0.42 µM

target: T1, Protein deacetylase HDAC6 (Homo sapiens, UniProt Q9UBN7); assay: Inhibition of HDAC6 (unknown origin); settings: not given
T1 sequence (Q9UBN7 whole entry): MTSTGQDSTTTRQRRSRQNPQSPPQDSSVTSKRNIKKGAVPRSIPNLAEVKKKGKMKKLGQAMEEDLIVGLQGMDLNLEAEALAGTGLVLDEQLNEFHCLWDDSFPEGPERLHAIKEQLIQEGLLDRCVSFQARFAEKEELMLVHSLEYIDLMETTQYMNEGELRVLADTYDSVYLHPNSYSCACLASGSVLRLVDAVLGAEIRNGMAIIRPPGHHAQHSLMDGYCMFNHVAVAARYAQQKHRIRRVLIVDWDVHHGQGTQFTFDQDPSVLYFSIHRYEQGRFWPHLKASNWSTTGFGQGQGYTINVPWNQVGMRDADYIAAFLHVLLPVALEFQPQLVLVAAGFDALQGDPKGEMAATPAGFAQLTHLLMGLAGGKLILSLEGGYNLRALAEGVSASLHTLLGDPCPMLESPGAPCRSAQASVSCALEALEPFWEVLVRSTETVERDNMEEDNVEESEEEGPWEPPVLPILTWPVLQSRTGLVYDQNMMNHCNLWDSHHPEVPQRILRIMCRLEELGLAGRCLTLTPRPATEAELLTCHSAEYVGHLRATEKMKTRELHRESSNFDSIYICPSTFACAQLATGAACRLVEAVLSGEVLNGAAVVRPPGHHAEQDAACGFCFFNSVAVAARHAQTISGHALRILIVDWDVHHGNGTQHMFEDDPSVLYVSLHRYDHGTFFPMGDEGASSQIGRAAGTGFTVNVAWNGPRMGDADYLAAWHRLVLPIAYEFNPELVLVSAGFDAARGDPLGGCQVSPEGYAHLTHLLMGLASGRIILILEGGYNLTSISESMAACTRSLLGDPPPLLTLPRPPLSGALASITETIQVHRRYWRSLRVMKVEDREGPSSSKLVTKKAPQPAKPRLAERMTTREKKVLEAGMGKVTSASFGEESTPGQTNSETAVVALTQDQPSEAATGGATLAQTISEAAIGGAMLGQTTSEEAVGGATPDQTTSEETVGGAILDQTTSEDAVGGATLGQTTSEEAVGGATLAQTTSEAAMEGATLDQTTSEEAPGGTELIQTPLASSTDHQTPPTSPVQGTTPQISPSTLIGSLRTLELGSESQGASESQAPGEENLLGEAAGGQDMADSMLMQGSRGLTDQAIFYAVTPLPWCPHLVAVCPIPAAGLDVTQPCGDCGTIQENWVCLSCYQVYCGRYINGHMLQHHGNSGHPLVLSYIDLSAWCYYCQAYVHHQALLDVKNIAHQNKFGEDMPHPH

Row | Structure (SMILES) | IC50
65 | CCCNNC(=O)CCCCCCNC(=O)c1cnc(-c2ccc3[nH]ccc3c2)s1 | > 10 µM

target: T2, Histone deacetylase 8 (Homo sapiens, UniProt Q9BY41); assay: Inhibition of HDAC8 (unknown origin); settings: not given
T2 sequence (Q9BY41 whole entry): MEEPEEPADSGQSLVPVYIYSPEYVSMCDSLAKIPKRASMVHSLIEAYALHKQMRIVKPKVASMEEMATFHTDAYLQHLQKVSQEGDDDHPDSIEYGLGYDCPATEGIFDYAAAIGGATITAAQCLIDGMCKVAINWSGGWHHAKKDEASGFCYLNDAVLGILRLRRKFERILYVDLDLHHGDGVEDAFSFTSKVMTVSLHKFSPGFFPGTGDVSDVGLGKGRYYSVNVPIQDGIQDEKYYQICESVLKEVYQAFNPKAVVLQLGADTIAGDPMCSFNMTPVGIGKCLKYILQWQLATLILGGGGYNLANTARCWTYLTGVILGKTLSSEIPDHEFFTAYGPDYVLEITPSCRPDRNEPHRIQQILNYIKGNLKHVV

Row | Structure (SMILES) | IC50
66 | CCCNNC(=O)CCCCCCNC(=O)c1cnc(-c2ccc3[nH]ccc3c2)s1 | > 10 µM
